{
  "source": "patent US20230219957A1",
  "about": "“SMALL MOLECULE CB002-ANALOGES RESTORE THE P53 PATHWAY AND TARGET S-PHASE CHECKPOINT” (Brown University, priority 2020, published 2023)",
  "key": {"SW480 shNoxa cells": {"tested_on": "SW480 shNoxa cells", "assay": "Tumor xenograft efficacy in NSG mice, Noxa knockdown", "assay_type": "in vivo", "settings": "compared to vehicle control", "protocol": "Knockdown expression of NOXA by lentivirus infection. A NOXA shRNA plasmid construct was amplified according to the manufacturers recommendation (TRC Lentiviral Human PMAIP1 shRNA, Dharmacon). Plasmid DNA was isolated using the PureLink® HiPure Plasmid Filter Maxiprep Kit (Invitrogen) according to the manufacturers instructions. Lentivirus production was performed by transfecting HEK293T cells at a density of 8×10^6 cells per 10-cm dish with 1.6 μg pMD2.G envelope plasmid, 3.2 μg psPAX2 packaging vector, 3.2 μg plasmid DNA, and 24 μL of Lipofectamine® Transfection reagent 2000 (Life Technologies) in a total volume of the reaction of 1 mL of antibiotic-free DMEM media for 6-10 hours. The media was then replaced with antibiotic-free DMEM. Lentiviral particles were collected between forty-eight to seventy-two hours. SW480 cells ([…] cells per well in a 12-well plate) were infected 1:1 (virus-containing media: antibiotic-free DMEM media, total volume 1 mL) for twenty-four hours. Then, the media was replaced with DMEM complete media for an additional twenty-four hours. […]\nDrug efficacy using in vivo tumor xenografts. […] Mouse weight and tumor measurements were recorded one-two times per week. Tumor volume was calculated as V=0.5*L*W^2, where L is length and W is the width of the tumor. […]"}, "SW480 colon cancer cells": {"tested_on": "SW480 colon cancer cells", "assay": "Label-free quantitative proteomic analysis", "assay_type": "cell-based, human", "settings": "twenty-four hours", "protocol": "Proteomic analysis. SW480 cells were seeded at a density of 1×10^6 in 10 cm dishes and treated with dimethyl sulfoxide vehicle control or CB002-analog #4 for twenty-four hours. Floating cells were collected. Adherent cells were trypsinized. Cells were spun down and washed with phosphate-buffered saline. The pelleted cells were frozen and submitted for LC-MS/MS identification and comparative analysis at the Center for Cancer Research Development, Proteomics Core Facility at the Rhode Island Hospital. Samples (cell pellets) were lysed with a lysis buffer (8M urea, 1 mM sodium orthovanadate, 20 mM HEPES, 2.5 mM sodium pyrophosphate, 1 mM β-glycerophosphate, pH 8.0, twenty minutes, 4° C.) followed by sonication at 40% amplification by using a microtip sonicator (QSonica, LLC, Model no. Q55) and cleared by centrifugation (14,000×g, fifteen minutes, 15° C.). Protein concentration was measured (Pierce BCA Protein Assay, Thermo Fisher Scientific, Waltham, Mass., USA). A total of 100 μg of protein per sample was subjected to trypsin digestion. Tryptic peptides were desalted using C18 Sep-Pak plus cartridges (Waters, Milford, Mass., USA) and were lyophilized for forty-eight hours to dryness. […]\nSample preparation for LC-MS/MS analysis. […] Protein concentration was measured (Pierce BCA Protein Assay, Thermo Fisher Scientific) and 100 μg of protein per sample was subjected for trypsin digestion. […]"}},
  "data": [
    {"smiles": "Cn1c(=O)c2[nH]c(Nc3cccc(C(F)(F)F)c3)nc2n(C)c1=O", "note": "[CB002-analog #4]", "values": [
      {"measurement": "tumor volume", "setting": "SW480 shNoxa cells", "result": "did not differ in tumor volume"},
      {"measurement": "CDK4, CKS1B, ERCC6L, MAPK3, and MAX protein abundance", "setting": "SW480 colon cancer cells", "result": "decreased"}
    ]}
  ]
}
